Entries after “also recorded” stand apart in the source; their conditions may differ. Where two headings read alike, the source gives them in different places. One block for each molecule: values may come before it. Square brackets hold non-standard residues; d marks the D form. Primed or numbered codes have the meaning given here. Ends that are not written are not given here. βIle = beta-form isoleucine; βVal″ = beta-form valine
Legend:
human AT1R = target: T1, human AT1R (Homo sapiens, UniProt P30556); test: Competition radioligand binding (125I-Sar1-Ile8-AngII) in AT1R-transfected HEK-293 cells
T1 construct: expressed in transfected cells
T1 sequence (P30556 1-359): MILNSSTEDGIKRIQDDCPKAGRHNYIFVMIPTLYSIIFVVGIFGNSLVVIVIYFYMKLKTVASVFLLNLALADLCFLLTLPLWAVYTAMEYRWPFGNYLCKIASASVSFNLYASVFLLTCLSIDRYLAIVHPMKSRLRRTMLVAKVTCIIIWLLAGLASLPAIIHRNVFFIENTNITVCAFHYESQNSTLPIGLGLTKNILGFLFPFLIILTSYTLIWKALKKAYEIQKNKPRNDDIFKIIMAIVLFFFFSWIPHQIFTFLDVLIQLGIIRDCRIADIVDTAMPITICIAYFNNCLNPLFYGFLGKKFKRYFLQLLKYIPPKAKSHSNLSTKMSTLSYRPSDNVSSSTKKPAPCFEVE
Procedure: (§3) This will lead to the generation of IC50 values that determine the relative ability of test compounds to interact with both Angiotensin receptors.
(§4) Cells were grown to approximately 80% confluence before being re-plated into 48 well plates at 1×10^5 cells/well and grown for 48 hours at 37° C. for a whole cell competition binding assay. [125I]-Sar1Ile8Ang II at 50,000 cpm, incubated for 45 minutes at 37° C., in the absence or presence of unlabeled ligands, prepared in binding buffer (DMEM, 0.1% BSA), were used in the competition assays at concentrations ranging from 1 μM to 10 μM. For each experiment, each ligand concentration was tested in duplicate or triplicate, and each experiment was repeated at least 3 separate times. […] The ability of each ligand to inhibit specific binding of [125I]-Sar1Ile8Ang II was measured on a gamma counter with all counts corrected for NSB.

human AT2R = target: T2, human AT2R (Homo sapiens, UniProt P50052); test: Competition radioligand binding (125I-Sar1-Ile8-AngII) in AT2R-transfected HEK-293 cells; conditions: for binding at AT2R (displacement of 125I-Sar1-Ile8-AngII), in words: transfected HEK-293 cells
T2 construct: expressed in transfected cells
T2 sequence (P50052 1-363): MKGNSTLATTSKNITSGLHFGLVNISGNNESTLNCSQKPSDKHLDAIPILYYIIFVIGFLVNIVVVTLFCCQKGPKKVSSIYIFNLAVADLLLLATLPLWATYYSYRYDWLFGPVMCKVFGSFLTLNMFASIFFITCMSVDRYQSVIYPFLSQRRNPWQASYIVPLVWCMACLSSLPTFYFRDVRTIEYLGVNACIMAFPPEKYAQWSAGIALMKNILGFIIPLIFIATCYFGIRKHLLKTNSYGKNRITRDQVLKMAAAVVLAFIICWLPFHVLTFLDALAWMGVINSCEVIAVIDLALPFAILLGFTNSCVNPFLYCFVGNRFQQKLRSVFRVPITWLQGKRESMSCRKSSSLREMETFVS
Procedure: as §3, §4

mouse aortae = test: Vasorelaxation of pre-contracted mouse aortae; conditions: 0.1-1000 nM, pre-contracted with U46619
Excerpt: FIG. 17: The selective AT2R ligands, β-Pro^7-Ang III and D-Arg^2-β-Pro^7-Ang III, are functional agonists in vasculature.

[1] = tested on: male FVB/N mice on high salt diet, heart; test: High salt (5%) diet intervention model, heart; type: in vivo, mouse
Procedure: (§1) C) In the intervention (or reversal) model, male FVB/N mice were treated with selective AT2Rs agonists after the establishment of cardiovascular disease using a high salt diet, in order to reverse cardiovascular pathologies. In some experiments, the ACE inhibitor captopril (dose) or the ARB candesartan cilexetil (dose) were given for 4 weeks in drinking water. Organs examined included heart, kidney and liver and these were compared to either untreated mice or high salt-fed mice that were treated with saline.
A high-salt diet (5% salt) model is a clinically relevant and disease-reversal model which can replicate the high salt intake by humans which is currently a growing problem in the developed countries. High salt intake induces changes in the cardiovascular system and induces remodelling and fibrosis in the heart, kidney and liver.
(§2) Mice were placed on either a normal rodent diet (0.35% NaCl) which acted as control or a high salt diet (5% sodium in food chow) for 8 weeks. After 4 weeks, mice were also treated subcutaneously (via osmotic mini-pump) with either saline or an AT2R agonist (75 pmol/kg/min subcutaneously) for 4 weeks. Mice continued to be fed a high salt diet whilst receiving these treatments.
All mice which underwent surgery were anaesthetized with Isoflurane (Isorrane) (5% induction and 2.5% maintenance) and an incision made in the midscapular region through which osmotic minipumps (Alzet model 2004, Alza Corp) were inserted for subcutaneous drug administration. The incision area was sutured with 6/0 DY silk (Dynek Pty Ltd) and antibiotic powder applied (Cicatrin, Pfizer) followed by intramuscular injection of the analgesic Cartrophen (0.1 ml of a 1.5 mg/ml stock solution; Biopharm Australia). Systolic blood pressure (SBP) was measured using non-invasive tail-cuff plethysmography apparatus (MC4000 Blood Pressure Analysis System, Hatteras Instrument Inc) before drug treatment (week 0), and then fortnightly. At the end of the 8 week treatment period mice were weighed before being killed by overdose of isoflurane inhalation and cervical dislocation.
To measure collagen deposition, frozen sections of heart, kidney or aorta (all 5 μm thickness) were air dried for 10 minutes and were brought through 3 times xylene (2 minutes each), and 3 times absolute alcohol washes before being rinsed in tap H2O for 30 seconds. Staining with an optimal concentration of picrosirius red (in this instance 0.05% picrosirius red diluted in saturated picric acid) was performed and left for an hour. Sections were then rinsed in water and differentiated in 0.01M HCl for 2 minutes, followed by dehydration via 3 times absolute alcohol washes. Then, slides were brought through 3 times xylene washes before being cover slipped according to standard histological techniques using DPX as the mounting medium. Images were taken under ×20 magnification, using bright field (Olympus, BX51) and circularized polarized light microscopy (DM IRB, Leica) while percentage of positive interstitial collagen staining per total field of view was quantified using ImageJ 1.46 software (Java, NIH), and averaged out from a total of eight views as the final percentage collagen content in a particular animal.
Immunostaining was performed on 5 μm thick transverse frozen heart sections. These sections were air dried and fixed in ice-cold acetone for approximately 15 minutes before washing with 0.01M PBS buffer (3×10 minutes). Sections were then incubated with 10% goat serum in 0.01M PBS for 30 minutes to reduce non-specific binding. If the primary antibody is raised in goat, this pre-blocked medium is substituted with 5% BSA in PBS and Triton-X. Next, blocking buffers were removed and the primary antibody to respective markers were applied overnight at room temperature based on the following dilution and origin of the antibodies: α-SMA (1:500, Abcam), Vimentin (1:500, Santa Cruz), P-IκBα (1:200, Cell Signalling), F4/80 macrophage (1:100, Serotec). […]

[2] = tested on: male FVB/N mice on high salt diet, liver; test: High salt (5%) diet intervention model, liver; type: in vivo, mouse; conditions: weeks 5-8; peptides 75 pmol/kg/min s.c.; Cand 2 mg/kg/day, captopril 3 mg/kg/day
Procedure: as §1, §2
Liver sections used either picrosirius red staining or Masson's trichome staining as described above. Higher concentrations of picrosirius red were often used under polarized light microscopy. The liver was removed and sectioned with half of the liver placed in 10% formalin and the rest frozen in liquid nitrogen before being stored in ˜80° C. freezer for future use. Formalin fixed, paraffin embedded livers were sectioned at thickness of 4 μm and were stained with Masson's trichrome according to standard procedures for analysis of liver fibrosis. […] Sections were re-fixed in Bouin's solution for 1 hour at 56° C. to improve staining quality then rinsed in running tap water for 5-10 minutes to remove yellow colour. Following this, sections were stained in Weigert's iron hematoxylin working solution for 10 minutes. Rinsed in running warm tap water for 10 minutes. Washed in distilled water. Stained in Biebrich scarlet-acid fuchsin solution for 10-15 minutes.
Washed in distilled water. Differentiated in phosphomolybdic-phosphotungstic acid solution for 10-15 minutes or until collagen was no longer red. Sections were transferred directly (without rinse) to aniline blue solution and stained for 5-10 minutes. Rinsed briefly in distilled water and differentiated in 1% acetic acid solution for 2-5 minutes. Washed in distilled water. […] Mounted with DPX mounting medium. Quantification of liver fibrosis was performed using images captured with the Aperio scanner (Monash Histology Platform, Monash University), with ×5 magnification. Each liver section had 5 different fields of view photographed at this magnification. Percentage of interstitial and perivascular collagen was analysed and quantified using ImageJ 1.48 software (Java, NIH), and the percentage from 5 random fields of view were averaged for final percentage of collagen for that particular animal. All analysis of collagen expression was conducted in a blinded fashion.

[3] = tested on: human cardiac fibroblasts; test: AT1R and AT2R mRNA expression in human cardiac fibroblasts (qPCR); type: cell-based; conditions: 5 ng/ml for 72 hours
Procedure: FIG. 2: TGF-β1 differentially affects the mRNA expression of AT1R and AT2R in human cardiac fibroblasts. Quantitative qPCR data showing that both AT1R and AT2R are expressed in human cardiac fibroblasts. TGF-β1 (5 ng/ml for 72 hours) increased AT2R mRNA expression but not AT1R mRNA expression. Quantitative values were obtained from the threshold cycle (Ct) number. Target gene expression level was normalized against beta-actin mRNA expression for each sample and data was expressed relative to the control. Data expressed as mean±sem relative to untreated HCFs; *P<0.05 versus untreated control (t-test).

[4] = tested on: human cardiac fibroblasts; test: Pro-fibrotic effect of Ang II in human cardiac fibroblasts; type: cell-based
Procedure: Commercially available human cardiac fibroblasts (HCF, Catalog #6300, Sciencell, Calif., USA) were grown in T75 flask maintained in an incubator at 37° C., 5% CO2. Complete media composition: M199 media (#11150-059, life technologies)+10% FBS (#10437-028, life technologies)+1% Fibroblast Growth Supplement-2 (#2382, ScienCell)+1% penicillin/streptomycin 10,000 U/ml antibiotics (#15140-122, Life Technologies). Fresh complete media was replenished every alternate day until culture reached 70% confluence in which media is replenished daily until it reached approximately 90% confluence in order to passage/subculture. To subculture, media was discarded and culture was rinsed with warm PBS. After which, culture was detached using warm 0.05% Trypsin+EDTA with gentle swirling of flask to make sure cells were not adherent to surface of flask. Trypsin was then neutralized with complete media and suspension was then transferred into a new falcon tube and centrifuged at 1000 rpm for 5 minutes. […]

[5] = tested on: human cardiac fibroblasts; test: TGF-β1-induced collagen production in human cardiac fibroblasts (Western blot); type: cell-based; conditions: co-treated with TGF-β1 for 3 days, increasing concentrations up to 1 μM
Procedure: D) Human cardiac fibroblasts (HCFs) were treated with TGFβ1 to induce a pro-fibrotic phenotype state in cell culture, exemplified by increased collagen-1 production, measured by Western blot. HCFs were treated with TGFβ1 alone, or in the presence of an AT2R agonist for 3 days, and the ability of AT2R agonists to inhibit TGFβ1-induced collagen-1 production was measured.
Commercially available human cardiac fibroblasts (HCF, Catalog #6300, Sciencell, Calif., USA) were grown in T75 flask maintained in an incubator at 37° C., 5% CO2. Complete media composition: M199 media (#11150-059, life technologies)+10% FBS (#10437-028, life technologies)+1% Fibroblast Growth Supplement-2 (#2382, ScienCell)+1% penicillin/streptomycin 10,000 U/ml antibiotics (#15140-122, Life Technologies). Fresh complete media was replenished every alternate day until culture reached 70% confluence in which media is replenished daily until it reached approximately 90% confluence in order to passage/subculture. To subculture, media was discarded and culture was rinsed with warm PBS. After which, culture was detached using warm 0.05% Trypsin+EDTA with gentle swirling of flask to make sure cells were not adherent to surface of flask. Trypsin was then neutralized with complete media and suspension was then transferred into a new falcon tube and centrifuged at 1000 rpm for 5 minutes. Supernatant was discarded and pellet of cells were resuspended with 5 ml of complete media, followed by cell counting. For subculturing/passaging, 1 million HCFs are placed into a T75 flask. For Picrosirius Red (PSR) staining or immunofluorescence experiments, 100 k cells were loaded per well in a 24 well plate lined with round coverslips. […]
Once treatment is complete, cells were washed with warm PBS and detached using Accutase (A6964, Sigma), with 5 minutes incubation at 37° C. […] The supernatant (˜20 ul) was transferred to a new tube and protein concentrations were measured using Biorad Lowry protein assay. Protein quantification of respective markers were performed via standard western blot analysis. […]

[6] = target: T3, human Angiotensin II Receptor Type 2 (AT2R) (human, UniProt P50052 1-363); test: AT2R over AT1R, from IC50s of competition radioligand binding; reference AT1R
T3 construct: whole, on cells; also endogenous on human cardiac fibroblasts (functional entries); also called AT2 receptor
T3 sequence (looked up): T2 sequence (P50052 1-363)
Procedure: (§5) For each experiment, each ligand concentration was tested in duplicate or triplicate, and each experiment was repeated at least 3 separate times.

[7] = target: T3, human Angiotensin II Receptor Type 2 …; test: competition radioligand binding on HEK-293 cells with AT2R; competitor [125I]-Sar1Ile8Ang II
Procedure: as §5

Fold AT2R selectivity (human AT2R; AT2R over AT1R, Table 3): >300,000 fold | AT2R/AT1R selectivity ratio (human AT2R; approximate or conservatively estimated): > 300,000 fold | binding at AT2R (displacement of 125I-Sar1-Ile8-AngII), in words (human AT2R): high affinity
Molecule: D-Arg-Val-Tyr-Ile-His-β-Pro-Phe [D-Arg β-Pro-Ang III]
binding at AT1R (displacement of 125I-Sar1-Ile8-AngII), in words (human AT1R; listed as D-Arg^2-β-Pro^7-Ang III): bind poorly; also recorded: did not substantially displace | vasorelaxation of pre-contracted aortae (mouse aortae): concentration-dependent vasorelaxation | myofibroblast differentiation in heart (α-SMA) ([1]; 75 pmol/kg/min s.c., weeks 5-8): fully reversed the high salt-induced myofibroblast differentiation | cardiac fibrosis (picrosirius red) ([1]; weeks 5-8 of high salt diet, peptides 75 pmol/kg/min s.c. mini-pump, Cand 2 mg/kg/day, captopril 3 mg/kg/day in drinking water): reversed established cardiac fibrosis | liver fibrosis (picrosirius red, polarized light) [2]: normalised liver fibrosis | liver steatosis (Oil Red O) [2]: significantly reduced steatosis

Molecule: TGF-β1: pro-fibrotic agent (fibrogenic cytokine) used to stimulate human cardiac fibroblasts
AT1R mRNA expression [3]: not | AT2R mRNA expression [3]: increased

Molecule: Ang II [reference compound]
binding at AT1R (displacement of 125I-Sar1-Ile8-AngII), in words (human AT1R): readily binds | binding at AT2R (displacement of 125I-Sar1-Ile8-AngII), in words (human AT2R): readily binds | myofibroblast differentiation (α-SMA expression) ([4]; HCFs treated with Ang II): caused myofibroblast differentiation | protein expression of collagen ([4]; varying concentrations for 3 days, Western blot): dose-dependent increases

Molecule: β-Val^3-Ang II: β-substituted Ang II peptide which only has ~50-fold AT2R:AT1R selectivity (DR[βVal″]YIHPF)
TGF-β1-induced collagen production [5]: failed to inhibit

Fold AT2R selectivity [6]: 1040 fold | IC50 [7]: 9.6 nM
B1: βIle-8-Ang III (peptide)
peptide: RVYIHP[βIle]-OH
notes: synthetic peptide; also called Arg-Val-Tyr-Ile-His-Pro-β-Ile

— patent publication US11331368B2, “Angiotensin receptor agonists and uses thereof” (Monash University, priority 2017, dated 2022)
